System: patients with dry eye disease
Assay: Phase 2b: overall efficacy on signs and symptoms
Type: in vivo, human
Experimental: In a Phase 2b clinical trial, the efficacy of Reproxalap Ophthalmic Solutions (0.25% and 0.1%) were evaluated in patients with dry eye disease (see the details in Example 1). […] The efficacy profile of Reproxalap Ophthalmic Solutions was evident as early as two weeks following treatment initiation. […] Efficacy Analysis • Evaluated baseline to weeks 2, 4, 8 and 12 change scores with reproxalap on DED sign and symptom endpoints (both pre-CAE and CAE endpoints). Each endpoint was analyzed at a two-sided alpha level of 0.05, and the overall type I error was not controlled for in this investigative study. • Evaluated effect size of baseline to weeks 2, 4, 8 and 12 change scores of reproxalap vs vehicle on DED sign and symptom endpoints (both pre-CAE and CAE endpoints) to confirm the endpoint selection for primary outcome parameters and sample size for Phase 3 studies with reproxalap. • Sub-group analyses on effect size of baseline to weeks 2, 4, 8 and 12 change scores of reproxalap vs vehicle on DED sign and symptom endpoints (both pre-CAE and CAE endpoints) [Subgroups were prospectively detailed in the Statistical Analysis Plan (SAP)].

SMILES: CC(C)(O)c1nc2ccc(Cl)cc2cc1N [Reproxalap, reproxalap]
- Dose response between 0.1% and 0.25% dose strengths: dose response
